In patent US20250127906A1, “SMALL-MOLECULE DEGRADERS OF CDK8 AND CDK19” (University of South Carolina, priority 2021, published 2025):

Assays:
CDK19 [1] = target: T1, CDK19 (Homo sapiens, UniProt Q9BWU1); experiment: CDK19 degradation in Loucy T-cell leukemia cells lacking Cyclin C; format: cell-based; parameters: endogenous in cells; host or cells: Loucy; conditions: Loucy cells (lacking CCNC), 24 hr treatment
Text: (§1) This cell line, however, is unique in lacking Cyclin C (CCNC), the binding partner of CDK8/19. To test if the absence of CDK8-bound CCNC was responsible for the loss of IA7843 CDK8-degrading activity, we have tested the effect of IA7843 on a derivative of HEK-293cells with CRISPR-mediated knockout of CCNC.
Target sequence in this assay (Q9BWU1 whole entry): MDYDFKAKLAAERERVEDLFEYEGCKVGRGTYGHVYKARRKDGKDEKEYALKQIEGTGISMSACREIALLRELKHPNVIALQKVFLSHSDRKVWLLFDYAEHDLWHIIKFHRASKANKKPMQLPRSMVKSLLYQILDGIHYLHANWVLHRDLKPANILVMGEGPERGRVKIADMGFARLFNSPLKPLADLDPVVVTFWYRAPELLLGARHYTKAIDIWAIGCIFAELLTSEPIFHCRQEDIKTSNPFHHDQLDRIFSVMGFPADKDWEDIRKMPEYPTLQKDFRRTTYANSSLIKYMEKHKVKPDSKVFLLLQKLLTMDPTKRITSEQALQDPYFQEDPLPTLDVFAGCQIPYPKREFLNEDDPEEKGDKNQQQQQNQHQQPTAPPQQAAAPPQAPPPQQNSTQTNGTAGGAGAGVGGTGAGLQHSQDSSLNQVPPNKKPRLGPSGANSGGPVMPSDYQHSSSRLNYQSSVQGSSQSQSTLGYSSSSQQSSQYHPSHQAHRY

[2] = tested on: pS727 STAT1 and total STAT1; experiment: pS727 STAT1 and total STAT1 in CT26 tumors in Balb/c mice; format: in vivo; conditions: oral gavage 20 mg/kg, 2, 8 or 24 hrs after dosing
Protocol: (§2) CT26 cells were injected subcutaneously into syngeneic Balb/c female mice and allowed to grow to 150˜200 mm^3. Tumor-bearing mice then received PROTACs IA7882 or IA7886 by oral gavage at 20 mg/kg in 30% propylene glycol/70% PEG-400 vehicle. Tumors were collected 2, 8 or 24 hrs after dosing and used to measure protein levels of CDK8, pS727 STAT1 and total STAT1 (by western blotting) and mRNA expression of CCL12, a gene that is inhibited by different CDK8/19 inhibitors in CT26 tumors in vivo (by QPCR).

CDK8 [3] = target: T2, CDK8 (Mus musculus, UniProt Q8R3L8); experiment: CDK8 protein level in CT26 tumors in Balb/c mice; format: in vivo; parameters: from tissue; host or cells: subcutaneous CT26 tumours in Balb/c female mice; conditions: oral gavage 20 mg/kg, 2, 8 or 24 hrs after dosing
T2 sequence (Q8R3L8 1-464): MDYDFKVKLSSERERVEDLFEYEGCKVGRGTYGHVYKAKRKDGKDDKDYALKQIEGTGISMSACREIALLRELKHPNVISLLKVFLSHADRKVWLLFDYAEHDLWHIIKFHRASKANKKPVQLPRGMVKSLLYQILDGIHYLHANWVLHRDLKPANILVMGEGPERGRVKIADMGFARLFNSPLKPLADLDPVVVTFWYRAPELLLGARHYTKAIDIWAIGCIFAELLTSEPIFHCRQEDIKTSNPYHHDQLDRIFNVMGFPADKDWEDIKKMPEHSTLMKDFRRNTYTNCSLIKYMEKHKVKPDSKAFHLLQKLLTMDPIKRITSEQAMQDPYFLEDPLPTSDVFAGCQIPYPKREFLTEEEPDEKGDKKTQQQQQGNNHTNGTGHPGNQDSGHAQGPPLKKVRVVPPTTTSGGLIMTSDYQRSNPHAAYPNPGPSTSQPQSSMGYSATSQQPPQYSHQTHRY
T2 sequence (Q62447 1-283 partner): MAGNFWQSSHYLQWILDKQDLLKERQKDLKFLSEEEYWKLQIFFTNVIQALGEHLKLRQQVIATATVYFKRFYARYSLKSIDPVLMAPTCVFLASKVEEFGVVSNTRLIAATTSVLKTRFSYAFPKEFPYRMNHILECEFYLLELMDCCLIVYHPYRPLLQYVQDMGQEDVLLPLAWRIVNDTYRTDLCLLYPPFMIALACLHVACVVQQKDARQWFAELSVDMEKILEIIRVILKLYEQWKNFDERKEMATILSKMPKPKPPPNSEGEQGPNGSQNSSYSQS
Protocol: as §2

CDK8 [4] = target: T3, CDK8 (Homo sapiens, UniProt P49336); experiment: CDK8 degradation in HEK-293 cells (Western blot, normalized by GAPDH); format: cell-based; parameters: endogenous in cells; host or cells: HEK-293; conditions: HEK-293 cells
Outline: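 HEK-293 cells were treated for 24 h with or without compound, at 1 μM or 0.3 μM for single-point testing. RIPA lysates were immunoblotted for CDK8, and densitometry gave levels normalized to GAPDH. DC50 is the concentration that reduces CDK8 to half its level in untreated cells.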
Target sequence in this assay (P49336 whole entry): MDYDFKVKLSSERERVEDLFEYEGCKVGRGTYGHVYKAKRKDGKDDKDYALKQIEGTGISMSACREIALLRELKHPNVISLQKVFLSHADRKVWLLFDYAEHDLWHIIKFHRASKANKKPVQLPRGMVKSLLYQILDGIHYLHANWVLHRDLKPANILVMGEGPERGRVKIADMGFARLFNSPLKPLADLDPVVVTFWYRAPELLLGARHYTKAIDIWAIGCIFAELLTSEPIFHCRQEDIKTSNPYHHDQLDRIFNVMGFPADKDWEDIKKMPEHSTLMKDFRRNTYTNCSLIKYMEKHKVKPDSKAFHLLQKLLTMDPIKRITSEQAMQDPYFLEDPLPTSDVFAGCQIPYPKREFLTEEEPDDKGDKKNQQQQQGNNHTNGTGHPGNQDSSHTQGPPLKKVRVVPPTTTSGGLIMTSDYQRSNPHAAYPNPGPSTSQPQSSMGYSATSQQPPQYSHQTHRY
Target sequence in this assay (P24863 whole entry partner): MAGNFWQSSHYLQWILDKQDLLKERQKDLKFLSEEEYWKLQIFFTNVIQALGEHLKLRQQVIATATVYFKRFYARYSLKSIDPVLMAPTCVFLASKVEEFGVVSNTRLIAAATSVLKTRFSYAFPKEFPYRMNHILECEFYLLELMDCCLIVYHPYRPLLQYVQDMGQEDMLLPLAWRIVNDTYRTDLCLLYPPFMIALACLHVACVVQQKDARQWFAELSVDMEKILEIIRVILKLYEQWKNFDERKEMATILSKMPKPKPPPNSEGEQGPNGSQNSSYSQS

[5] = Serum drug concentrations in CD-1 mice (LCMSMS); format: in vivo; conditions: female CD-1 mice, i.p. 15 mg/kg, 15 min and 1 hr
Protocol: For preliminary evaluation of the bioavailability of the PROTACs, IA7882 and IA7886 were administered to female CD-1 mice via intraperitoneal (i.p.) injection at the dose of 15 mg/kg. Drug concentrations were measured by LCMSMS analysis of serum samples collected at 15 min and 1 hr time point.

CDK19 [6] = target: T1, CDK19; experiment: CDK19 degradation in HEK-293 cells with CRISPR knockout of CCNC; format: cell-based; parameters: a derivative of HEK-293cells with CRISPR-mediated knockout of CCNC; endogenous in cells; host or cells: HEK-293 with CRISPR knockout of CCNC; conditions: HEK-293 CCNC-knockout cells, 24 hr treatment
Text: as §1
Target sequence in this assay (Q9BWU1 whole entry): as the sequence (Q9BWU1 whole entry) above

CCL12 = CCL12 mRNA expression in CT26 tumors in Balb/c mice (QPCR); format: in vivo; conditions: oral gavage 20 mg/kg, 2, 8 or 24 hrs after dosing
Protocol: as §2

CDK19 [7] = target: T1, CDK19; experiment: CDK19 degradation in HEK-293 cells (Western blot); format: cell-based; parameters: PROTACs on CDK8 and CDK19 degradation in HEK-293cells; endogenous in cells; host or cells: HEK-293; conditions: concentration degrading CDK19 to half of level in untreated cells
Text: Furthermore, the degradation of both CDK8 and CDK19 by the PROTACs is also seen to decrease the levels of their binding partner cyclin C (CCNC) (FIG. 2B, D, E), which is known to be protected from proteolytic degradation by its interaction with CDK8 (Barette et al., 2001).
FIGS. 2F and 2G show the effects of different concentrations of potent Senexin C- and BI-1347-based PROTACs on CDK8 and CDK19 degradation in HEK-293cells. Based on these assays, we calculated DC50 values that correspond to PROTAC concentrations inducing degradation of CDK8 and CDK19 to the half of protein level in untreated cells. The corresponding CDK8 DC50 values were 46 nM for IA7843, 6.6 nM for IA7882 and 2.8 nM for IA7886, and CDK19 DC50 values were 1 μM for IA7843, 25 nM for IA7882 and 10 nM for IA7886.
Target sequence in this assay (Q9BWU1 whole entry): as above
Target sequence in this assay (P24863 whole entry partner): as the sequence (P24863 whole entry partner) above

CDK8 [8] = target: T3, CDK8; experiment: CDK8 degradation in HEK-293 cells with CRISPR knockout of CCNC; format: cell-based; parameters: a derivative of HEK-293cells with CRISPR-mediated knockout of CCNC; endogenous in cells; host or cells: HEK-293 with CRISPR knockout of CCNC; conditions: HEK-293 CCNC-knockout cells, 24 hr treatment
Text: as §1
Target sequence in this assay (P49336 whole entry): as the sequence (P49336 whole entry) above

CDK8 [9] = target: T3, CDK8; experiment: CDK8 degradation in Loucy T-cell leukemia cells lacking Cyclin C; format: cell-based; parameters: endogenous in cells; host or cells: Loucy; conditions: Loucy cells (lacking CCNC), 24 hr treatment
Text: as §1
Target sequence in this assay (P49336 whole entry): as above

CDK19 degradation (in words) (CDK19 [1]): efficiently degraded CDK8 and CDK19 | % CDK8 remaining (CDK8 [4]; 24 hours, tested at 1 μM): 12% | DC50 (CDK8 [4]; concentration degrading CDK8 to half of level in untreated cells): 6.6 nM | CDK19 degradation (in words) (CDK19 [6]): efficiently degraded CDK8 and CDK19 | DC50 (CDK19 [7]): 25 nM | CDK8 degradation (in words) (CDK8 [8]): efficiently degraded CDK8 and CDK19 | CDK8 degradation (in words) (CDK8 [9]): efficiently degraded CDK8 and CDK19
SMILES: O=C1CCC(N2C(=O)c3cccc(NCCOCCOCCOCCOCCC(=O)N4CCN(C(=O)Cn5cc(-c6ccc(-c7cncc8ccccc78)cc6)cn5)CC4)c3C2=O)C(=O)N1 (centres unmarked) [IA7882, 2-(2,6-dioxo-3-piperidyl)-4-[2-[2-[2-[2-[3-[4-[2-[4-[4-(4-isoquinolyl)phenyl]pyrazol-1-yl]acetyl]piperazin-1-yl]-3-oxo-propoxy]ethoxy]ethoxy]ethoxy]ethylamino]isoindoline-1,3-dione]
pS727 STAT1 and total STAT1 in tumors [2]: decreased in most of the tumors collected 2 hrs or 8 hrs after dosing | CDK8 levels in tumor extracts (CDK8 [3]): decreased in most of the tumor extracts collected 2 hrs or 8 hrs after dosing | serum drug concentrations [5]: readily measurable and were higher for IA7882 than for IA7886 | levels of CCL12 mRNA in tumors (CCL12): decreased in tumors treated with IA7882 or IA7886 2 hrs or 8 hrs (but not 24 hrs) after dosing
